This passage reports % of control results from ChEMBL document CHEMBL5465560, “Selectivity Literature for EUbOPEN Chemogenomic Library” (2024).

Changes are numbered by the printed parent chain.

Holding throughout (details): at 10 µM
The test system of experiment [1] is T1, Receptor-type tyrosine-protein kinase FLT3 (Homo sapiens), P36888 [D835Y].
T1 sequence (whole entry): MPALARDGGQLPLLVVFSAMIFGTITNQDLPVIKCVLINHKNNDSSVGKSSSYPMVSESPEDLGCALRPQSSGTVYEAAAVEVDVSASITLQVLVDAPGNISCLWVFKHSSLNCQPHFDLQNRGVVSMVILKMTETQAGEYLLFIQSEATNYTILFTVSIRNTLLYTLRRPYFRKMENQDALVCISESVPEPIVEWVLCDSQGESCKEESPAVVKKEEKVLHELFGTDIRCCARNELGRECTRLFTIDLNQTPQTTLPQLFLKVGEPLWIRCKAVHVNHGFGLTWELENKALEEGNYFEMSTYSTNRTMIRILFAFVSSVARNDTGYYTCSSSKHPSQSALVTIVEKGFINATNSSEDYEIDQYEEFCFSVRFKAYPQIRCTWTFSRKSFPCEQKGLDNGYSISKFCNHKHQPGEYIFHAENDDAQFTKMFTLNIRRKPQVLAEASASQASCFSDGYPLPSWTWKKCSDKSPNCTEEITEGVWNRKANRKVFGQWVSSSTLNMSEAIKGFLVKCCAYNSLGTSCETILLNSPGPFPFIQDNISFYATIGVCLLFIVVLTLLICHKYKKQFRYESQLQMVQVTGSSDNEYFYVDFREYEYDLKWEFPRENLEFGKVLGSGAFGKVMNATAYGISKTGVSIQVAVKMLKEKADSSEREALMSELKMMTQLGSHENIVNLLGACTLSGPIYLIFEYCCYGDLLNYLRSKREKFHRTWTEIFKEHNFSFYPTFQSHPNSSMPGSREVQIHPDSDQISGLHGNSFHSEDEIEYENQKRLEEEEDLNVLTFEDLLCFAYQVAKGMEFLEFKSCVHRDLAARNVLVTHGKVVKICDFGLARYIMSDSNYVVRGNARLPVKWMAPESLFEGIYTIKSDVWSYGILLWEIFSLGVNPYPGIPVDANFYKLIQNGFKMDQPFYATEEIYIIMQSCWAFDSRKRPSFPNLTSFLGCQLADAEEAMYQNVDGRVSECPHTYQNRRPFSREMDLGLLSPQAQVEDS
Nature of the experiment: (§1) Selectivity interaction (KinomeScan (DiscoverX)) EUB0000666a FLT3.

Experiment [2] deals with T2, Receptor-type tyrosine-protein kinase FLT3 (Homo sapiens), P36888 [R834Q].
T2 sequence (whole entry): T1 sequence (whole entry) with R834Q, Y835D
Described as §1.

Experiment [3] addresses T3, Serine/threonine-protein kinase D2 (Homo sapiens) (UniProt Q9BZL6).
T3 sequence (whole entry): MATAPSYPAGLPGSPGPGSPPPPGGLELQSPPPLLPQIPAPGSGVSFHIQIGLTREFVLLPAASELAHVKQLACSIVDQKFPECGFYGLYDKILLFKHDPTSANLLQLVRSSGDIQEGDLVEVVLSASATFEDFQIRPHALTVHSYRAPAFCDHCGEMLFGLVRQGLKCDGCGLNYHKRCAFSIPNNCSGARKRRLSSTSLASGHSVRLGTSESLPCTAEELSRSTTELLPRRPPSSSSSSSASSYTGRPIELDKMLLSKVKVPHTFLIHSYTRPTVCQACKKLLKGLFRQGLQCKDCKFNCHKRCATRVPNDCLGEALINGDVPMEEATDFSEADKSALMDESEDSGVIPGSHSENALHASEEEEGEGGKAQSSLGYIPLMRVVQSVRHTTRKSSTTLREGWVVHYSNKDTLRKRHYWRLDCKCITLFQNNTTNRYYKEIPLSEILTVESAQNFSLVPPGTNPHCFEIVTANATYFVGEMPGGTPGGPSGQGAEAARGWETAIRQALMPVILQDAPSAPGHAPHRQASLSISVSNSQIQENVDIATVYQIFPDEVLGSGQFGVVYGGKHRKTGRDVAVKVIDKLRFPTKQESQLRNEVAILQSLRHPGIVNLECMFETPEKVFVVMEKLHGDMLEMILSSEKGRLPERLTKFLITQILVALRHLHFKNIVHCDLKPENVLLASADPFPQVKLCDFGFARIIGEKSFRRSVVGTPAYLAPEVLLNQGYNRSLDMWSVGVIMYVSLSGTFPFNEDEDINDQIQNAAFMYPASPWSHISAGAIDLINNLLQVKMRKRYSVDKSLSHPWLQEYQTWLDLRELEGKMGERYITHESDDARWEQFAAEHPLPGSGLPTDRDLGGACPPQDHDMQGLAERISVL
Kind of experiment: Selectivity interaction (KinomeScan (DiscoverX)) EUB0000595a PRKD2.

Turning to `O=C(NOC[C@H](O)CO)c1ccc(F)c(F)c1Nc1ccc(I)cc1F`, the % of control in experiment [1] is 100%; in experiment [2] it was 78%.

Consider `COCC(=O)NC/C=C/c1ccc2ncnc(Nc3ccc(Oc4ccc(C)nc4)c(C)c3)c2c1` [CP-724714], for which the % of control in experiment [3] turned out to be 97%.
